Measurements reported in patent US11583529B2, “Treatment of inflammatory disorders” (Aldeyra Therapeutics, Inc., priority 2017, dated 2023).

Tested on: dextran sulfate sodium (DSS)-induced acute ulcerative colitis (UC)
Experiment: 7-Day DSS-induced acute ulcerative colitis model
Type: in vivo, female Swiss Webster mice
[1] = 100 mg/kg IP QD, Days 0 through 6, vs IP vehicle
[2] = 200 mg/kg PO BID, Days 0 through 6, vs PO vehicle
[3] = 200 mg/kg PO BID, Days −3 through 6, vs PO vehicle

`CC(C)(O)c1nc2ccccc2cc1N` [Compound I-6] was tested, and the “Colon lengths, increase in the direction of normal” value [1] was 56%, the “Colon weight-to-length ratios, reduction in the direction of normal” value [1] was 35% and the “DAI score of occult/gross blood in stool, AUC” value [1] was “significantly lower”. The “DAI score of stool consistency, area under the curve (AUC)” value [1] was “significantly lower”, the “DAI summed scores, AUC” value [1] was “significantly lower” and the “full colon PMN percentages, reduction” value [1] was 53%. The “full colon edema, reduction” value [1] was 53%, the “full colon erosion, reduction” value [1] was 91% and the “full colon gland loss, reduction” value [1] was 82%. For the same compound, the “full colon inflammation, reduction” value [1] was 56%, the “full colon lymphoid aggregate counts, reduction” value [1] was 113% and the “full colon neutrophil scores, reduction” value [1] was 73%. The “full colon summed scores, reduction” value [1] was 68%, the “proximal colon gland loss, reduction” value [1] was 57% and the “proximal colon inflammation, reduction” value [1] was 32%. For the same compound, the “proximal colon lymphoid aggregate counts, reduction” value [1] was 107%, the “proximal colon summed scores, reduction” value [1] was 36% and the Body weight loss (100 mg/kg IP QD, Days 0 through 6, vs IP vehicle (SBECD)) was “significantly inhibited”. The Body weights (200 mg/kg PO BID (Groups 5, 6, 7, 8, 9, and 10), vs PO vehicle) was “did not differ significantly”, the “full colon edema, reduction” value [2] was 44% and the “proximal colon edema, reduction” value [2] was 48%. For the same compound, the “proximal colon inflammation, reduction” value [2] was 36%, the “full colon edema, reduction” value [3] was 58% and the “proximal colon edema, reduction” value [3] was 41%. For the same compound, the “proximal colon erosion, reduction” value [3] was 75%, the “DAI stool consistency scores” value (Day 2, 100 mg/kg IP QD, Days 0 through 6, vs IP vehicle) was “significantly reduced” and the DAI summed scores (Day 6, 100 mg/kg IP QD, Days 0 through 6, vs IP vehicle) was “significantly reduced”. The “DAI occult/gross blood in stool scores” value (Days 4 and 6, 100 mg/kg IP QD, Days 0 through 6, vs IP vehicle) was “significantly reduced”.
